Experimental data published in ChEMBL document CHEMBL1144741, “Review of cytotoxic cephalostatins and ritterazines: isolation and synthesis” (2008).

Test system: P388
Assay: Antitumor activity against mouse P388 cells
Type: functional
Conditions: read-out: ED50 (the source's name)

Row | SMILES | EC50
1 | C[C@H]1[C@@H](O)C2(Oc3cc4c(c5c3[C@H](C[C@H]5O)[C@@H]2C)CC[C@H]2Cc3nc5c(nc3C[C@]42C)C[C@@H]2CC[C@H]3C4=C[C@@H]6O[C@@]7(C[C@]6(O)[C@@]4(C)[C@H](O)C[C@@H]3[C@@]2(C)C5)O[C@](C)(CO)C[C@H]7O)OC1(C)C (some centres undefined) [CEPHALOSTATIN 5] | 42.5 nM
2 | C[C@H]1[C@H]2C[C@@H](O)c3c4c(cc(c32)OC12OC(C)(C)C[C@H]2O)[C@@]1(C)Cc2nc3c(nc2C[C@@H]1CC4)C[C@@]1(C)[C@@H](CC[C@H]2C4=C[C@@H]5O[C@@]6(C[C@]5(O)[C@@]4(C)[C@H](O)C[C@@H]21)O[C@](C)(CO)C[C@H]6O)C3 (some centres undefined) [CEPHALOSTATIN 6] | 2.3 nM
3 | CO[C@H]1c2nc3c(nc2C[C@@H]2CC[C@H]4C5=C[C@@H]6O[C@]7(O[C@](C)(CO)C[C@H]7O)[C@@H](C)[C@]6(O)[C@@]5(C)[C@H](O)C[C@@H]4[C@]21C)C[C@@]1(C)[C@@H](CC[C@H]2C4=CC[C@@H]5[C@H](C)[C@@]6(OC[C@]45C(=O)C[C@@]21O)OC(C)(C)C[C@H]6O)C3 [CEPHALOSTATIN 10] | 3.2 nM
4 | CO[C@H]1c2nc3c(nc2C[C@@H]2CC[C@H]4C5=CC[C@@H]6[C@@H](C)[C@]7(OC[C@]56C(=O)C[C@@H]4[C@]21C)OC(C)(C)C[C@H]7O)C[C@@]1(C)[C@@H](CC[C@H]2C4=C[C@@H]5O[C@]6(O[C@](C)(CO)C[C@H]6O)[C@@H](C)[C@]5(O)[C@@]4(C)[C@H](O)C[C@@H]21)C3 [CEPHALOSTATIN 11] | 2.7 nM
5 | C[C@@H]1[C@]2(O[C@H]3C=C4[C@@H]5CC[C@H]6Cc7nc8c(nc7C[C@]6(C)[C@H]5C[C@@H](O)[C@]4(C)[C@]31O)C[C@@H]1CC[C@H]3C4=C[C@@H]5O[C@]6(O[C@](C)(CO)C[C@H]6O)[C@@H](C)[C@]5(O)[C@@]4(C)[C@H](O)C[C@@H]3[C@@]1(C)C8)O[C@](C)(CO)C[C@H]2O [CEPHALOSTATIN 12] | 76.2 nM
6 | C[C@@H]1[C@]2(O[C@H]3C=C4[C@@H]5CC[C@H]6Cc7nc8c(nc7C[C@]6(C)[C@H]5C[C@@H](O)[C@]4(C)[C@]31O)C[C@@H]1CC[C@H]3C4=C[C@@H]5O[C@]6(O[C@](C)(CO)C[C@H]6O)[C@@H](C)[C@]5(O)[C@@]4(C)[C@H](O)C[C@@H]3[C@@]1(C)[C@H]8O)O[C@](C)(CO)C[C@H]2O [CEPHALOSTATIN 13] | 47.9 nM
7 | C[C@@H]1[C@H]2C[C@@H]3O[C@@]34[C@]3(O)CC[C@H]5Cc6nc7c(nc6C[C@]5(C)C3=CC(=O)[C@]24CO[C@]12OC(C)(C)C[C@H]2O)C[C@@H]1CC[C@H]2C3=C[C@@H]4O[C@]5(O[C@](C)(CO)C[C@H]5O)[C@@H](C)[C@]4(O)[C@@]3(C)[C@H](O)C[C@@H]2[C@@]1(C)C7 [CEPHALOSTATIN 14] | 4.4 nM
8 | C[C@@H]1[C@H]2C[C@@H]3O[C@@]34[C@]3(O)CC[C@H]5Cc6nc7c(nc6C[C@]5(C)C3=CC(=O)[C@]24CO[C@]12OC(C)(C)[C@@H](C)[C@H]2O)C[C@@H]1CC[C@H]2C3=C[C@@H]4O[C@]5(O[C@](C)(CO)C[C@H]5O)[C@@H](C)[C@]4(O)[C@@]3(C)[C@H](O)C[C@@H]2[C@@]1(C)C7 [CEPHALOSTATIN 15] | 26.2 nM
9 | C[C@@H]1[C@H]2CC=C3[C@@H]4CC[C@H]5Cc6nc7c(nc6C[C@]5(C)[C@@]4(O)CC(=O)[C@@]32CO[C@]12OC(C)(C)C[C@H]2O)C[C@@H]1CC[C@H]2C3=C[C@@H]4O[C@@]5(CC[C@](C)(O)CO5)[C@@H](C)[C@]4(O)[C@@]3(C)[C@H](O)C[C@@H]2[C@@]1(C)C7 [CEPHALOSTATIN 16] | < 1.1 nM
